Test results as given in ChEMBL document CHEMBL5390294, “Pseudoceranoids A-J, Sesquiterpene-Based Meroterpenoids with Cytotoxicity from the Sponge Pseudoceratina purpurea” (J Nat Prod, 2023).

Tests used:
[1] = Cytotoxicity against human L02 cells assessed as inhibition of cell growth by SRB assay; type: toxicity, cell-based
MDA-MB-231 = assay: Cytotoxicity against human MDA-MB-231 cells assessed as inhibition of cell growth by SRB assay; type: functional, cell-based
ASPC1 = assay: Cytotoxicity against human ASPC1 cells assessed as inhibition of cell growth by SRB assay; type: functional, cell-based
H69AR = assay: Cytotoxicity against human NCI-H69AR cells assessed as inhibition of cell growth by SRB assay; type: functional, cell-based
K562 = assay: Cytotoxicity against human K562 cells assessed as inhibition of cell growth by MTT assay; type: functional, cell-based

Row | SMILES | IC50 [1] [µM] | IC50 (MDA-MB-231) [µM] | IC50 (ASPC1) [µM] | IC50 (H69AR) [µM] | IC50 (K562) [µM]
1 | COC1=CC(=O)C=C(C[C@]2(C)[C@H](C)CC[C@@H]3C(C)=CCC[C@@H]32)C1=O | > 30 | > 30 | > 30 | > 30 | > 30
2 | COC(=O)/C=C1/OC(=O)C(C[C@@]2(C)CC[C@]3(C)C(C)=CCC[C@H]3[C@H]2C)=C1O | > 30 | > 30 | > 30 | > 30 | > 30
3 | COC1=CC(=O)[C@H](C[C@@]2(C)CC[C@]3(C)C(C)=CCC[C@H]3[C@H]2C)[C@H]1O | > 30 | > 30 | > 30 | > 30 | > 30
4 | COC1=CC(=O)C(O)=C(C[C@@]2(C)CC[C@]3(C)[C@@H](C)C(=O)CC[C@H]3[C@H]2C)C1=O | 7.6 | > 30 | > 30 | > 30 | 16.1
5 | COC1=CC(=O)C2=C(C[C@@H]3[C@@]4(C)CCCC(C)(C)[C@@H]4CC[C@@]23C)C1=O | > 30 | > 30 | > 30 | > 30 | > 30
6 | COC1=CC(=O)[C@@H](C[C@@]2(C)CC[C@]3(C)C(C)=CCC[C@H]3[C@H]2C)[C@H]1O | > 30 | > 30 | > 30 | > 30 | > 30
7 | COc1cccc2c1C(=O)c1c(O)c3c(c(O)c1C2=O)C[C@@](O)(C(=O)CO)C[C@@H]3O[C@H]1C[C@H](N)[C@H](O)[C@H](C)O1 [DOXORUBICIN] |  | < 1 | < 1 | < 1 | < 1
8 | CCCCOC1=CC(=O)C(O)=C(C[C@@]2(C)CC[C@]3(C)C(C)=CCC[C@H]3[C@H]2C)C1=O | 20.3 | 9.82 | > 30 | 7.74 | 3.01
9 | COC1=CC(=O)C(O)=C(C[C@@]2(C)CC[C@]3(C)C(C=O)=CCC[C@H]3[C@H]2C)C1=O | 12.1 | > 30 | > 30 | 2.85 | > 30
10 | C=C1CCC[C@H]2[C@@H]1CC[C@@H](C)[C@@]2(C)CC1=CC(=O)C=C(OC)C1=O | > 30 | > 30 | > 30 | > 30 | > 30
11 | COc1cc(O)cc2c1O[C@]1(C)CC[C@H]3C(C)(C)CCC[C@]3(C)[C@H]1C2 | > 30 | > 30 | > 30 | > 30 | 14
